{
  "source": "patent US9770026B2",
  "about": "“Substituted pyrimidine compound and uses thereof” (Shenyang Sinochem Agrochemicals R&D Co., Ltd., priority 2012, dated 2017)",
  "key": {"corn rust": {"test_system": "corn rust", "assay": "protectant activity in vivo against corn rust", "conditions": "for control effect against corn rust (%): 400 mg/L"}, "Diamond back moth": {"test_system": "Diamond back moth", "assay": "insecticidal activity against diamond back moth, airbrush spray", "type": "in vivo", "method_in_brief": "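Airbrush leaf-disc spray test: both faces of 2 cm cabbage discs received 0.5 ml of test solution at 0.7 kg/cm^2. Solutions were made in acetone:methanol (1:1) and brought to concentration with 0.1% Tween 80 in water. Ten second-instar larvae per disc, triplicates, were held at 25° C and 60˜70% R.H., with mortality recorded at 72 hrs.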"}, "wheat powdery mildew": {"test_system": "wheat powdery mildew", "assay": "protectant activity in vivo against wheat powdery mildew", "conditions": "for control effect against wheat powdery mildew (%): 400 mg/L"}, "cucumber downy mildew": {"test_system": "cucumber downy mildew", "assay": "protectant activity in vivo against cucumber downy mildew"}, "armyworm": {"test_system": "armyworm", "assay": "bioactivity test against armyworm, airbrush spray", "type": "in vivo"}, "[1]": {"test_system": "Green peach aphids (Myzus Persicae Sulzer)", "assay": "bioactivity test against green peach aphid, airbrush foliar spray", "type": "in vivo", "method_in_brief": "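Aphids (15-30 per cabbage leaf disc) on moist filter paper were airbrush-sprayed at 10 psi, 0.5 mL, with compound from acetone:methanol (1:1) diluted in water with 0.1% tween 80. Held at 25±1 C, 60±5% RH; survivors counted after 48 hrs to give death rates.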"}, "carmine spider mite": {"test_system": "carmine spider mite", "assay": "bioactivity test against carmine spider mite, airbrush spray", "type": "in vivo", "method_in_brief": "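Broadbean seedlings infested with adult mites were sprayed with compound (acetone/methanol stock diluted in 0.1% Tween 80 water) by airbrush at 0.7 kg/cm^2, 0.5 ml. Three replicates were run. Mortality was scored after 72 hrs.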"}, "[2]": {"conditions": "600 ppm, mortality after 72 hrs"}},
  "data": [
    {"smiles": "CCc1ncnc(NC(C)c2ccc(Oc3ccccc3)nc2)c1Cl", "note": "(stereo not drawn) [CK8, reference compound]", "values": [
      {"measurement": "control effect against corn rust (%)", "setting": "corn rust; protectant activity", "value": 50, "unit": "%"},
      {"measurement": "Insecticidal activity against diamond back moth (%)", "setting": "Diamond back moth; 600 mg/L", "value": 33, "unit": "%"},
      {"measurement": "control effect against wheat powdery mildew (%)", "setting": "wheat powdery mildew; protectant activity", "value": 0, "unit": "%"},
      {"measurement": "control effect against cucumber downy mildew (%)", "setting": "cucumber downy mildew; 25 mg/L, protectant activity", "value": 75, "unit": "%"},
      {"measurement": "control effect against cucumber downy mildew (%)", "setting": "cucumber downy mildew; 50 mg/L, protectant activity", "value": 80, "unit": "%"},
      {"measurement": "control effect against cucumber downy mildew (%)", "setting": "cucumber downy mildew; 100 mg/L, protectant activity", "value": 95, "unit": "%"},
      {"measurement": "control effect against cucumber downy mildew (%)", "setting": "cucumber downy mildew; 400 mg/L, protectant activity", "value": 98, "unit": "%"},
      {"measurement": "Insecticidal activity against armyworm (%)", "setting": "armyworm; 600 mg/L", "value": 17, "unit": "%"},
      {"measurement": "Insecticidal activity against peach aphid (%)", "setting": "[1]; 600 mg/L, contrastive test", "value": 0, "unit": "%"},
      {"measurement": "Insecticidal activity against carmine spider mite (% )", "setting": "carmine spider mite; 600 mg/L, contrastive test", "value": 54, "unit": "%"}
    ]},
    {"smiles": "CCc1ncnc(NC(=O)Cc2ccc(Oc3ncc(C(F)(F)F)cc3Cl)cc2)c1Cl", "note": "[CK16, reference compound]", "values": [
      {"measurement": "control effect against corn rust (%)", "setting": "corn rust; protectant activity", "value": 0, "unit": "%"},
      {"measurement": "Insecticidal activity against diamond back moth (%)", "setting": "Diamond back moth; 600 mg/L", "value": 0, "unit": "%"},
      {"measurement": "control effect against wheat powdery mildew (%)", "setting": "wheat powdery mildew; protectant activity", "value": 70, "unit": "%"},
      {"measurement": "control effect against cucumber downy mildew (%)", "setting": "cucumber downy mildew; 400 mg/L, protectant activity", "value": 85, "unit": "%"},
      {"measurement": "Insecticidal activity against armyworm (%)", "setting": "armyworm; 600 mg/L", "value": 0, "unit": "%"},
      {"measurement": "Insecticidal activity against peach aphid (%)", "setting": "[1]; 600 mg/L, contrastive test", "value": 64, "unit": "%"},
      {"measurement": "Insecticidal activity against carmine spider mite (% )", "setting": "carmine spider mite; 600 mg/L, contrastive test", "value": 0, "unit": "%"}
    ]},
    {"smiles": "COc1ccc(Oc2ccc(CCNc3ncnc(C)c3Cl)cn2)cc1", "note": "[III-19]", "values": [
      {"measurement": "protectant activity against corn rust in vivo", "setting": "corn rust; 400 ppm", "value": 100, "unit": "%"},
      {"measurement": "control (test results against diamond back moth)", "setting": "Diamond back moth; [2]", "value": 100, "unit": "%"},
      {"measurement": "protectant activity against wheat powdery mildew in vivo", "setting": "wheat powdery mildew; 400 ppm", "value": 100, "unit": "%"},
      {"measurement": "control effect against cucumber downy mildew (%)", "setting": "cucumber downy mildew; 6.25 mg/L, protectant activity", "value": 95, "unit": "%"},
      {"measurement": "control effect against cucumber downy mildew (%)", "setting": "cucumber downy mildew; 12.5 mg/L, protectant activity", "value": 98, "unit": "%"},
      {"measurement": "control effect against cucumber downy mildew (%)", "setting": "cucumber downy mildew; 25 mg/L, protectant activity", "value": 100, "unit": "%"},
      {"measurement": "control effect against cucumber downy mildew (%)", "setting": "cucumber downy mildew; 50 mg/L, protectant activity", "value": 100, "unit": "%"},
      {"measurement": "control effect against cucumber downy mildew (%)", "setting": "cucumber downy mildew; 100 mg/L, protectant activity", "value": 100, "unit": "%"},
      {"measurement": "control effect against cucumber downy mildew (%)", "setting": "cucumber downy mildew; 400 mg/L, protectant activity", "value": 100, "unit": "%"},
      {"measurement": "protectant activity against cucumber downy mildew in vivo", "setting": "cucumber downy mildew; 25 ppm", "value": 100, "unit": "%"},
      {"measurement": "protectant activity against cucumber downy mildew in vivo", "setting": "cucumber downy mildew; 50 ppm", "value": 100, "unit": "%"},
      {"measurement": "protectant activity against cucumber downy mildew in vivo", "setting": "cucumber downy mildew; 100 ppm", "value": 100, "unit": "%"},
      {"measurement": "protectant activity against cucumber downy mildew in vivo", "setting": "cucumber downy mildew; 400 ppm", "value": 100, "unit": "%"},
      {"measurement": "control (test results against armyworm)", "setting": "armyworm; 600 ppm, mortality after 72 h", "value": 100, "unit": "%"},
      {"measurement": "control (test results against green peach aphid)", "setting": "[1]; 600 ppm, death rate after 48 hrs", "value": 100, "unit": "%"},
      {"measurement": "control against carmine spider mite", "setting": "carmine spider mite; [2]", "value": 100, "unit": "%"}
    ]},
    {"smiles": "Cc1ncnc(NC(C)c2ccc(Oc3ncc(C(F)(F)F)cc3Cl)cc2)c1Cl", "note": "(stereo not drawn) [CK27, reference compound]", "values": [
      {"measurement": "pest or weed control at 6.25 µg/mL", "setting": "corn rust; Zea mays, 168 h, read-out: control effect against corn rust (%), 6.25 mg/L, protectant activity", "value": 30, "unit": "%"},
      {"measurement": "pest or weed control at 25 µg/mL", "setting": "corn rust; Zea mays, 168 h, read-out: control effect against corn rust (%), 25 mg/L, protectant activity", "value": 90, "unit": "%"},
      {"measurement": "pest or weed control at 100 µg/mL", "setting": "corn rust; Zea mays, 168 h, read-out: control effect against corn rust (%), 100 mg/L, protectant activity", "value": 100, "unit": "%"},
      {"measurement": "pest or weed control at 400 µg/mL", "setting": "corn rust; Zea mays, 168 h, read-out: control effect against corn rust (%), 400 mg/L, protectant activity", "value": 100, "unit": "%"},
      {"measurement": "pest or weed control at 600 µg/mL", "setting": "Diamond back moth; 72 h, 600 mg/L", "value": 0, "unit": "%"},
      {"measurement": "pest or weed control at 400 µg/mL", "setting": "wheat powdery mildew; Triticum aestivum, 168 h, read-out: control effect against wheat powdery mildew (%), 400 mg/L, protectant activity", "value": 80, "unit": "%"},
      {"measurement": "pest or weed control at 25 µg/mL", "setting": "cucumber downy mildew; Cucumis sativus, 168 h, read-out: control effect against cucumber downy mildew (%), 25 mg/L, protectant activity", "value": 0, "unit": "%"},
      {"measurement": "pest or weed control at 50 µg/mL", "setting": "cucumber downy mildew; Cucumis sativus, 168 h, read-out: control effect against cucumber downy mildew (%), 50 mg/L, protectant activity", "value": 0, "unit": "%"},
      {"measurement": "pest or weed control at 100 µg/mL", "setting": "cucumber downy mildew; Cucumis sativus, 168 h, read-out: control effect against cucumber downy mildew (%), 100 mg/L, protectant activity", "value": 0, "unit": "%"},
      {"measurement": "pest or weed control at 400 µg/mL", "setting": "cucumber downy mildew; Cucumis sativus, 168 h, read-out: control effect against cucumber downy mildew (%), 400 mg/L, protectant activity", "value": 100, "unit": "%"},
      {"measurement": "pest or weed control at 600 µg/mL", "setting": "armyworm; 72 h, 600 mg/L, read-out: Insecticidal activity against armyworm (%)", "value": 29, "unit": "%"},
      {"measurement": "pest or weed control at 600 µg/mL", "setting": "[1]; Myzus persicae, foliar, 48 h, 600 mg/L, contrastive test, read-out: Insecticidal activity against peach aphid (%)", "value": 0, "unit": "%"},
      {"measurement": "pest or weed control at 10 µg/mL", "setting": "carmine spider mite; Tetranychus cinnabarinus, 72 h, 10 mg/L, contrastive test, read-out: Insecticidal activity against carmine spider mite (% )", "value": 18, "unit": "%"},
      {"measurement": "pest or weed control at 100 µg/mL", "setting": "carmine spider mite; Tetranychus cinnabarinus, 72 h, 100 mg/L, contrastive test, read-out: Insecticidal activity against carmine spider mite (% )", "value": 100, "unit": "%"},
      {"measurement": "pest or weed control at 600 µg/mL", "setting": "carmine spider mite; Tetranychus cinnabarinus, 72 h, 600 mg/L, contrastive test, read-out: Insecticidal activity against carmine spider mite (% )", "value": 100, "unit": "%"}
    ]}
  ]
}
